This assay deals with T1, 5-hydroxytryptamine receptor 1A (Rattus norvegicus, UniProt P19327).
T1 sequence (P19327 whole entry): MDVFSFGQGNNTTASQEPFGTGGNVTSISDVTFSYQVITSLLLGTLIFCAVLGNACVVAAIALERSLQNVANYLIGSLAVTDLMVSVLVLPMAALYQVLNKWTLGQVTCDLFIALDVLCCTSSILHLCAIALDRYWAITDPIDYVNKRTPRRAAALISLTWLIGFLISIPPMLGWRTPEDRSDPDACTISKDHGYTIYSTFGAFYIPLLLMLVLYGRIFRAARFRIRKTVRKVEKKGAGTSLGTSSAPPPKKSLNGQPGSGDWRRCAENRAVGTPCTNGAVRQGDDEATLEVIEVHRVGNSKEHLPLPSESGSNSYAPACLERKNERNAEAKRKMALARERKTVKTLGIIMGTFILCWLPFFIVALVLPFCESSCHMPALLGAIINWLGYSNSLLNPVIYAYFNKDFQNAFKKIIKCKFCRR
Description: In vitro binding affinity for 5-hydroxytryptamine 1A receptor in rat hippocampal membranes by [125I]-labeled agonist displacement.

A word on the Ki: it is the dissociation constant of the complex between target and ligand, obtained from inhibition or displacement. Low values mean tighter binding, high ones weaker binding. The compound `COc1ccccc1N1CCN(CCN(C(=O)c2ccc(I)cc2)c2ccccn2)CC1` came in with an inhibition constant Ki of 200 pM.
The figure for `COc1ccccc1N1CCN(CCN2C(=O)c3cc(I)ccc3C2(O)c2ccccc2)CC1` (stereo unspecified) is 650 pM; for `COc1ccccc1N1CCN(CCN2C(=O)c3ccccc3C2c2ccccn2)CC1` (stereo unspecified) it is 6500 pM; for `COc1ccccc1N1CCN(CCN2C(=O)CCC2c2ccc(Br)cc2)CC1` (stereo unspecified) it is 1090 pM.
Compound `COc1ccccc1N1CCN(CCN2C(=O)c3ccccc3C2c2ccccc2)CC1` (stereo unspecified) came in with a Ki of 500 pM.
In turn, `COc1ccccc1N1CCN(CCN2C(=O)c3cc(N)ccc3C2(O)c2ccccc2)CC1` (stereo unspecified) displayed a Ki of 1850 pM.

The values are drawn from ChEMBL document CHEMBL1131309, “Isoindol-1-one analogues of 4-(2'-methoxyphenyl)-1-[2'-[N-(2"-pyridyl)-p-iodobenzamido]ethyl]pipera zine (p-MPPI) as 5-HT1A receptor ligands” (J Med Chem, 1998).
